Measured values as given in patent US20230203485A1, “METHODS FOR MODULATING MHC-I EXPRESSION AND IMMUNOTHERAPY USES THEREOF” (Dana-Farber Cancer Institute, Inc., priority 2020, published 2023).

Test system: class I antigen presentation gene expression in MCC cell lines
Assay: RNA-seq / DESeq2 differential expression of MCC cell lines at baseline and after IFN-γ stimulation
Type: cell-based, human
Details: 11 MCC cell lines, baseline vs IFNγ; negative LFC = upregulation in IFNγ-treated
Description: FIG. 2A comprises RNA-seq heatmaps of class I antigen presentation gene expression in MCC lines and controls.
FIG. 2B is a volcano plot of differentially expressed genes (genes below FDR cutoff 0.01 are shown in yellow) between baseline and IFN-γ-treated MCC cell lines. Differential expression analysis was performed using DESeq2, and negative LFC indicates increased expression in +IFN-γ samples. IFN genes are highlighted in red.
RNA samples were first assessed for quality using the Agilent Bioanalyzer (DV200 metric). One hundred ng of RNA were used as the input for first strand cDNA synthesis using Superscript III reverse transcriptase and Illumina's TruSeq RNA Access Sample Prep Kit. Synthesis of the second strand of cDNA was followed by indexed adapter ligation with UMI (unique molecular index) adaptors. Subsequent PCR amplification enriched for adapted fragments. Amplified libraries were quantified, normalized, pooled, and hybridized with exome targeting oligos. Following hybridization, bead clean-up, elution and PCR was performed to prepare library pools for sequencing on Illumina flowcell lanes. Transcriptomes were sequenced to a coverage of at least 50 million reads in pairs.
Raw fastq files for fibroblast and keratinocyte control lines were downloaded from SRA using R Bioconductor package SRAdb (Mayakonda et al. (2018) supra; Zhu et al. (2013) BMC Bioinformatics 14 (1): 1-4) using accession codes SRP126422 (4 replicates from control samples ‘NN’) and SRP131347 (6 replicates with condition: control and genotype: control). These fastq files, along with those for the mkl1 and waga cell lines, were aligned using STAR version 2.7.3a (Dobin et al. (2013) Bioinformatics 29 (1): 15-21), using index genome reference file downloaded from ftp.ebi.ac.uk/pub/databases/gencode/Gencode_human/release_19/GRCh37.p13.genome.fa.gz, transcript annotation file downloaded from data.broadinstitute.org/snowman/hg19/star/gencode.v19.annotation.gtf, and with the following options: --twopassMode Basic, --outSAMstrandField intronMotif, --alignIntronMax 1000000, --alignMatesGapMax 1000000, --sjdbScore 2, --outSAMtype BAM Unsorted, --outSAMattributes NH HI NM MD AS XS, --outFilterType BySJout, --outSAMunmapped Within, --genomeLoad NoSharedMemory, --outFilterScoreMinOverLread 0, --outFilterMatchNminOverLread 0, --outFilterMismatchNmax 999, and outFilterMultimapNmax 20. Duplicates were marked with picard MarkDuplicates version 2.22.0-SNAPSHOT.
RNA-sequencing bam files for MCC tumor and cell line samples were downloaded from the Broad Genomics Firecloud/Terra platform using the Google Cloud Storage command line tool gsutil version 4.5 (github.com/GoogleCloudPlatform/gsutil/).
Gene counts were obtained from bam files using featureCounts version 2.0.0 (doi.org/10.1093/bioinformatics/btt656). Very lowly expressed genes with average count across samples less than 1 were excluded from analysis. Between-sample distance metrics were computed using the Euclidean distance on the vectors of variance-stabilized counts obtained from the vst function in the DESeq2 R Bioconductor package ([…]; Love et al. (2014) Genome Biology 15 (12): 550).
Differential expression analysis was carried out between (1) viral positive and viral negative samples (adjusting for cell line or tumor as a covariate), (2) cell line and tumor samples (adjusting for viral status as a covariate), and (3) IFNγ plus and minus samples (adjusting for viral status as a covariate) using the negative binomial GLM Wald test of DESeq2, where significance was assessed using the p-values adjusted for multiple comparisons under default settings. To account for potential global gene expression differences among sample groups, RUVg (Risso et al. (2014) […] 32 (9): 896-902) was used to estimate latent factors of unwanted variation from the list of housekeeping genes downloaded from www.tau.ac.il/˜elieis/HKG/HK_genes.txt. […]

IFN-y: type II interferon, recombinant human, used to treat MCC cells
log2FoldChange FBXO6 (ENSG00000116663.6): −2.854
log2FoldChange FREM3 (ENSG00000183090.5): −4.873
log2FoldChange FZD5 (ENSG00000163251.3): −1.098
log2FoldChange GBP1 (ENSG00000117228.9): −10.1
log2FoldChange GBP1P1 (ENSG00000225492.2): −7.927
log2FoldChange GBP2 (ENSG00000162645.8): −6.235
log2FoldChange GBP3 (ENSG00000117226.7): −9.215
log2FoldChange GBP4 (ENSG00000162654.8): −10.33
log2FoldChange GBP5 (ENSG00000154451.10): −5.854
log2FoldChange HCP5 (ENSG00000206337.6): −5.131
log2FoldChange HELB (ENSG00000127311.5): −1.463
log2FoldChange HERC5 (ENSG00000138646.4): −2.156
log2FoldChange HERC6 (ENSG00000138642.10): −9.027
log2FoldChange HLA-A (ENSG00000206503.7): −3.702
log2FoldChange HLA-B (ENSG00000234745.5): −4.921
log2FoldChange HLA-C (ENSG00000204525.10): −4.155
log2FoldChange HLA-DMA (ENSG00000204257.10): −3.237
log2FoldChange HLA-DMB (ENSG00000242574.4): −5.727
log2FoldChange HLA-DOA (ENSG00000204252.8): −7.789
log2FoldChange HLA-DOB (ENSG00000241106.2): −3.598
log2FoldChange HLA-DPA1 (ENSG00000231389.3): −9.303
log2FoldChange HLA-DPB1 (ENSG00000223865.6): −7.613
log2FoldChange HLA-DQB1 (ENSG00000179344.12): −7.335
log2FoldChange HLA-DRA (ENSG00000204287.9): −10.07
log2FoldChange HLA-DRB1 (ENSG00000196126.6): −7.278
log2FoldChange HLA-DRB5 (ENSG00000198502.5): −5.98
log2FoldChange HLA-E (ENSG00000204592.5): −2.608
log2FoldChange HLA-F (ENSG00000204642.9): −7.289
log2FoldChange HLA-G (ENSG00000204632.7): −3.367
log2FoldChange HLA-H (ENSG00000206341.6): −3.883
log2FoldChange HLA-J (ENSG00000204622.6): −4.551
log2FoldChange HLA-L (ENSG00000243753.1): −2.336
log2FoldChange IDO1 (ENSG00000131203.8): −5.825
log2FoldChange IFI6 (ENSG00000126709.10): −2.328
log2FoldChange IFI16 (ENSG00000163565.14): −5.946
log2FoldChange IFI44 (ENSG00000137965.6): −8.954
log2FoldChange IFI44L (ENSG00000137959.11): −7.733
log2FoldChange IFIH1 (ENSG00000115267.5): −4.034
log2FoldChange IFIT1 (ENSG00000185745.8): −3.465
log2FoldChange IFIT2 (ENSG00000119922.7): −6.152
log2FoldChange IFIT3 (ENSG00000119917.9): −9.398
log2FoldChange IFITM1 (ENSG00000185885.11): −8.763
log2FoldChange IFITM3 (ENSG00000142089.11): −7.436
log2FoldChange IFNB1 (ENSG00000171855.5): −3.53
log2FoldChange IL7 (ENSG00000104432.8): −3.753
log2FoldChange IL15 (ENSG00000164136.12): −6.781
log2FoldChange IL15RA (ENSG00000134470.15): −6.483
log2FoldChange IL17RC (ENSG00000163702.14): −1.188
log2FoldChange IL18BP (ENSG00000137496.13): −1.497
log2FoldChange INPPI (ENSG00000151689.8): −1.931
log2FoldChange IRF1 (ENSG00000125347.9): −5.385
log2FoldChange IRF2 (ENSG00000168310.6): −1.588
log2FoldChange ISG15 (ENSG00000187608.5): −3.824
log2FoldChange ITK (ENSG00000113263.8): −4.656
log2FoldChange KCNIP4 (ENSG00000185774.10): −2.647
log2FoldChange KDR (ENSG00000128052.8): −7.174
log2FoldChange KIAA0040 (ENSG00000235750.5): −3.216
log2FoldChange LAP3 (ENSG00000002549.8): −1.871
log2FoldChange LGALS12 (ENSG00000133317.10): −4.156
log2FoldChange LIPT1 (ENSG00000144182.12): −0.5688
log2FoldChange LOC154761 (ENSG00000253882.2): −3.161
log2FoldChange LY75 (ENSG00000054219.9): −2.87
log2FoldChange MAJIN (ENSG00000168070.7): −3.183
log2FoldChange MOB3C (ENSG00000142961.10): −1.494
log2FoldChange MOV10 (ENSG00000155363.14): −1.652
log2FoldChange MTMR9LP (ENSG00000220785.3): −0.5387
log2FoldChange NOD1 (ENSG00000106100.6): −1.317
log2FoldChange NRIR (ENSG00000225964.1): −3.724
log2FoldChange NUB1 (ENSG00000013374.11): −1.521
log2FoldChange NUGGC (ENSG00000189233.7): −3.265
log2FoldChange OPTN (ENSG00000123240.12): −1.482
log2FoldChange PARP3 (ENSG00000041880.10): −1.726
log2FoldChange PARP9 (ENSG00000138496.12): −5.112
log2FoldChange PARP10 (ENSG00000178685.9): −3.43
log2FoldChange PARP12 (ENSG00000059378.8): −2.758
log2FoldChange PARP14 (ENSG00000173193.9): −9.512
log2FoldChange PARP15 (ENSG00000173200.8): −3.778
log2FoldChange PLA2G16 (ENSG00000176485.6): −2.531
